From ChEMBL document CHEMBL4732231, “Combretastatin A-4 sulfur-containing heterocyclic derivatives: Synthesis, antiproliferative activities and molecular docking studies” (Eur J Med Chem, 2021) come the findings set out here.

The subject of assay [1] is MES-SA/Dx5. Description: Antiproliferative activity against multidrug-resistant human MES-SA/Dx5 cells assessed as reduction in cell viability incubated for 72 hrs by prestoblue dye based assay. The class given is functional. Particulars: MES-SA/Dx5, 72 h.
In assay [2] the test system is A2780. Put plainly: Antiproliferative activity against human A2780 cells assessed as reduction in cell viability incubated for 72 hrs by MTT assay. The class given is functional, cell-based. The conditions noted are these: A2780, 72 h.
The subject of assay [3] is MIA PaCa-2. Put plainly: Antiproliferative activity against human MIA PaCa-2 cells assessed as reduction in cell viability incubated for 72 hrs by MTT assay. The class given is functional, cell-based. Particulars: MIA PaCa-2, 72 h.
The test system of assay [4] is RL. Description: Antiproliferative activity against human RL cells assessed as reduction in cell viability incubated for 72 hrs by MTT assay. The class given is functional, cell-based. (Tetrazolium dyes change colour on reduction, which living cells bring about.)
The target of assay [5] is Tubulin. Put plainly: Inhibition of tubulin polymerization in human HeLa cells assessed as dynamic tyrosinated microtubules content by incubated for 2 hrs by immunofluorescence staining based assay. The class given is cell-based.
For assay [6], the system named is RL. Description: Induction of cell cycle arrest in human RL cells assessed as increase in accumulation in subG0/G1 phase at 10 nM incubated for 24 hrs by PI staining based flow cytometry analysis (reference value: 4.5 %). Format: functional. (A flow cytometer gives signals particle by particle.)
In assay [7] the test system is RL. Description: Induction of cell cycle arrest in human RL cells assessed as increase in accumulation in subG0/G1 phase at 1 nM incubated for 48 hrs by PI staining based flow cytometry analysis (reference value: 8 %). Format: functional.
Assay [8] deals with RL. Put plainly: Induction of cell death in human RL cells assessed as cell gating level at 1 to 10 nM measured upto 48 hrs by PI staining based flow cytometry analysis (reference value: 80 to 85 %). Format: functional. Particulars: dose 1-10 nM, time hrs <=48.
The subject of assay [9] is RL. Put plainly: Induction of cell cycle arrest in human RL cells assessed as increase in accumulation in subG0/G1 phase at 10 nM incubated for 48 hrs by PI staining based flow cytometry analysis (reference value: 8 %). The class given is functional.
The test system of assay [10] is RL. Description: Induction of cell cycle arrest in human RL cells assessed as effect on cell cycle distribution at 1 nM incubated for 48 hrs by PI staining based flow cytometry analysis (reference value: 8 %). Format: functional.
Assay [11] deals with RL. Description: Induction of cell cycle arrest in human RL cells assessed as increase in accumulation in G2/M phase at 10 nM incubated for 24 hrs by PI staining based flow cytometry analysis (reference value: 23.3 %). The class given is functional.
Assay [12] concerns the target T1, Tubulin (Homo sapiens) (UniProt P68371+Q9H4B7+P0DPH7+P68366+Q13509+Q71U36+P04350+Q3ZCM7+P07437+P68363+Q9BQE3+Q6PEY2+Q13885+Q9BVA1+Q9BUF5). Put plainly: Inhibition of tubulin polymerization in human HeLa cells assessed as dynamic tyrosinated microtubules content at 2 uM by incubated for 2 hrs by immunofluorescence staining based assay. The class given is cell-based.

For assay [13], the target named is T1, Tubulin (Homo sapiens). Description: Inhibition of tubulin polymerization in human HeLa cells assessed as dynamic tyrosinated microtubules content at 1 uM by incubated for 2 hrs by immunofluorescence staining based assay. The class given is cell-based.
The target in assay [14] is T1, Tubulin (Homo sapiens). Put plainly: Inhibition of tubulin polymerization in human HeLa cells assessed as dynamic tyrosinated microtubules content at 14 uM by incubated for 2 hrs by immunofluorescence staining based assay. Format: cell-based.

Usually pIC50 stands for the IC50 on a negative log10 scale, so that one unit is a factor of ten. As usually defined, the pEC50 is the negative decadic logarithm of the EC50, by convention in mol/L. Usually inhibition stands for the share of the control response that was lost under treatment.

pEC50, pIC50: −log10 of the molar value. Calls of active or inactive are those of the source. The rule behind the calls is not given here. Where only a bound is given, the exact number is not on record here.

On to `COc1cc(/C=C\c2cc3ccccc3s2)cc(OC)c1OC`, for which the negative-log IC50 (pIC50) is 7.72 in assay [1], 8.10 in assay [2], 8.11 in assay [3] and 8.12 in assay [4].
Consider `COc1cc(/C=C\c2cc3cc(F)ccc3s2)cc(OC)c1OC`, for which the pEC50 in assay [5] is 6.28. The pIC50 in assay [2] was 6.70; in [3], 6.70; in assay [4] it was 7.42.
For the compound `COc1cc2c(c(OC)c1OC)-c1ccc(OC)c(=O)cc1[C@@H](NC(C)=O)CC2` [COLCHICINE], the negative-log IC50 (pIC50) in [1] was 6.12; in [2] it was 7.85; in assay [3] it was 8.21; in [4], 8.36.
With `COc1ccc(/C=C\c2cc(OC)c(OC)c(OC)c2)cc1O` [COMBRETASTATIN A4], the Activity in assay [6] is on record as 19.3%; in [7], 30.1%; in assay [8] it was 45%; in [9], 34.9%. For the same compound, the pIC50 was 8.52 in [1], 8.60 in [2], 8.68 in [3] and 8.85 in assay [4].
For `COc1cc(/C=C\c2sc3ccccc3c2C)cc(OC)c1OC`, the negative-log EC50 (pEC50) in [5] was 6.26. Further, the pIC50 is 6.44 in assay [2], 6.92 in [3] and 7.21 in assay [4].
As to `COc1csc(/C=C\c2cc(OC)c(OC)c(OC)c2)c1`, the Activity in assay [6] is listed as 15.6%; in assay [11], 48.8%; in [8], 45%; in assay [9], 23.4%. Further, the result in [10] was inactive. Also, the pIC50 in assay [1] was 7.57; in assay [2], 7.89; in assay [3], 7.85; in assay [4], 7.96.
With `COc1cc(/C=C\c2csc3ccccc23)cc(OC)c1OC`, the negative logarithm of the IC50 (pIC50) in assay [1] is 6.54.
Take `C=C(c1cc(OC)c(OC)c(OC)c1)c1cc2ccccc2s1`: the negative logarithm of the IC50 (pIC50) in assay [1] is 6.82.
On the same count and under the same terms, with `COc1ccc(/C=C\c2cc(OC)c(OC)c(OC)c2)s1` the figure was 7.12.
Regarding `COc1ccsc1/C=C\c1cc(OC)c(OC)c(OC)c1`, in assay [5], the pEC50 is under 5.00. Besides, the pIC50 in assay [2], in assay [3] and in assay [4] was under 6.00 each time.
As for `COc1ccc2sc(/C=C\c3cc(OC)c(OC)c(OC)c3)cc2c1`, the inhibition worked out at 62% in [12] and 14% in assay [13].
In the case of `COc1cc(C(=O)C(=O)c2cc3ccccc3s2)cc(OC)c1OC`, in assay [14], the inhibition is 35%.
For the compound `COc1cc(/C=C\c2cc3cc(O)ccc3s2)cc(OC)c1OC`, in [5], the pEC50 is 6.14.
